Results reported in publication PMC9783868, “Indoline-5-Sulfonamides: A Role of the Core in Inhibition of Cancer-Related Carbonic Anhydrases, Antiproliferative Activity and Circumventing of Multidrug Resistance” (Pharmaceuticals, 2022).
Like-named read-outs stand apart in the source and are kept apart here.

How the values were obtained:
hCA I = molecular target: T1, hCA I (Homo sapiens, UniProt P00915); experiment: CA inhibition, stopped-flow CO2 hydration assay; type: biochemical; conditions: stopped-flow technique; mean from three assays
T1 construct: made in house
Description: (§1) The CO2 hydration activity of the four hCA isoforms was monitored using an Applied Photophysics stopped-flow instrument. Phenol red (at a concentration of 0.2 mM) was used as an indicator, working at the absorbance maximum of 557 nm, with 10 mM HEPES (pH 7.4) as a buffer, and 20 mM NaClO4 (for maintaining constant the ionic strength), following the initial rates of the CA-catalyzed CO2 hydration reaction for a period of 10–100 s. To determine the kinetic parameters by Lineweaver-Burk plots and the inhibition constants, a concentration of CO2 between 1.7 to 17 mM was used. At least six measurements of the original 5–10% reaction were used to assess the initial velocity for each inhibitor. The uncatalyzed rates were determined and detracted from the total observed rates. Stock inhibitor solutions (10–100 mM) were prepared in distilled-deionized water, and dilutions up to 0.1 nM were done with the buffer test. […] The inhibition constants were obtained by non-linear least-squares methods using PRISM 6 and the Cheng-Prusoff equation, as reported earlier, and represent the mean from at least three different determinations.

hCA II = molecular target: T2, hCA II (Homo sapiens, UniProt P00918); experiment: CA inhibition, stopped-flow CO2 hydration assay; type: biochemical; conditions: stopped-flow technique; mean from three assays
T2 construct: made in house
Description: as §1

hCA IX = molecular target: T3, hCA IX (Homo sapiens, UniProt Q16790); experiment: CA inhibition, stopped-flow CO2 hydration assay; type: biochemical
T3 construct: made in house
Description: as §1

hCA XII = molecular target: T4, hCA XII (Homo sapiens, UniProt O43570); experiment: CA inhibition, stopped-flow CO2 hydration assay; type: biochemical; conditions: stopped-flow technique; mean from three assays
T4 construct: made in house
Description: as §1

MCF7 cells = experiment: Antiproliferative activity, MTT test; type: cell-based; conditions: Homo sapiens, MTT assay after 72 h exposure
Description: A series of synthesized indoline-5-sulfonamides was tested on the MCF7 cancer cell line under normoxia and hypoxia using the MTT test.
The MDR subline K562/4 [77] (kind gift of Dr. Alexander Shtil, Blokhin N.N. National Medical Research Center of Oncology) was obtained by stepwise selection of K562 cells for survival under continuous exposure to Dox. This subline expresses the MDR1 gene and functional P-gp and is characterized by a high resistance index for Dox. […] Cells in the logarithmic phase of growth were used in the experiments. The growth inhibitory activity of compounds was assessed by the MTT test based on the metabolism of the MTT reagent (3-[4,5-dimethylthiazol-2-yl]-2,5-diphenyltetrazolium bromide) (Applichem) in living cells, with modifications as described previously in [49]. Compounds at different concentrations in 100 μL of the appropriate medium were added, and the cells were grown for 72 h. The hypoxia (1% O2) conditions were simulated in Binder multigas incubator, as described in [49]. After incubation with compounds, the medium was removed, the MTT reagent that was dissolved in the medium was added to the final concentration of 0.2 mg/mL to each well, and the incubation was performed for 2 h. Then the cell supernatants were removed, and purple formazan crystals were dissolved in 100% DMSO (350 μL per well). Culture plates were gently shaken, and the absorbance was measured at 571 nm with a reference wavelength of 630 nm on a MultiScan reader (ThermoFisher, Waltham, MA, USA). The viability of the cells was expressed as a percentage of the control. Dose-response curves were analyzed by regression analysis using sigmoid curves (Log(concentration) vs. normalized absorbance).
All results were reported as means ± SD. One-way analysis of variance was used for the analysis of data. Differences were defined as significant at p < 0.05. GraphPad Prism7 (GraphPad Software, San Diego, CA, USA) was used for the determination of the half-maximal inhibitory concentration (IC50) values.

CA IX = experiment: Immunoblotting of hypoxia-induced protein expression in A431 cells; type: cell-based, human; conditions: hypoxia 24 h
Description: (§2) We wondered whether compound 4f affected CA IX expression or whether its activity was limited to inhibiting the enzyme activity reported above (Table 1). To induce CA IX expression, cells were placed in hypoxia for 24 h, and then protein expression was analyzed by immunoblotting. Because the data on the expression of hypoxia-related proteins in the literature are highly inconsistent, we introduced additional controls. Antibodies to hypoxia-regulated and “non-hypoxic” proteins were used. The expression of kinase Akt, which is not regulated directly by hypoxia/HIF-1α, was not altered under hypoxia conditions (Figure 5F). […] Thus, lead compound 4f not only blocks the enzyme activity of CA IX, but also causes partial inhibition of hypoxia-induced CA IX expression in skin cancer cells.
(§3) A431 cells were seeded on 100 mm dishes (Corning, Corning, NY, USA), and after 24 h growth, the compound 4f was added to a fresh medium. To prepare cell extracts, A431 cells were twice washed in phosphate buffer and incubated for 10 min on ice in the modified lysis buffer containing 50 mM Tris-HCl, pH 7.5, 0.5% Igepal CA-630, 150 mM NaCl, 1 mM EDTA, 1 mM DTT, 1 mM PMSF, 0.1 mM sodium orthovanadate and aprotinin, leupeptin and pepstatin (1 µg/mL each) as described earlier in the work. The protein content was determined by the Bradford method.
(§4) A431 cell lysates were separated in 10% SDS-PAGE under reducing conditions, transferred to a nitrocellulose membrane (GE HealthCare, Chicago, IL, USA), and processed according to a standard protocol. Akt, GLUT1, PD-L1, and CA IX antibodies were obtained from Cell Signaling Technology (Danvers, MA, USA); the antibodies against GAPDH (Cell Signaling Technology) were added to standardize loading. Goat anti-rabbit IgGs (Jackson ImmunoResearch, West Grove, PA, USA) conjugated to horseradish peroxidase were used as secondary antibodies. Signals were detected using the ECL reagent as described in Mruk and Cheng’s protocol and an ImageQuant LAS4000 system (GE HealthCare).

GLUT1 = experiment: as above; type: cell-based, human; conditions: hypoxia 24 h
Description: as §2, §3, §4

PD-L1 = experiment: as above; type: cell-based, human; conditions: hypoxia 24 h
Description: as §2, §3, §4

T1 sequence (P00915 whole entry): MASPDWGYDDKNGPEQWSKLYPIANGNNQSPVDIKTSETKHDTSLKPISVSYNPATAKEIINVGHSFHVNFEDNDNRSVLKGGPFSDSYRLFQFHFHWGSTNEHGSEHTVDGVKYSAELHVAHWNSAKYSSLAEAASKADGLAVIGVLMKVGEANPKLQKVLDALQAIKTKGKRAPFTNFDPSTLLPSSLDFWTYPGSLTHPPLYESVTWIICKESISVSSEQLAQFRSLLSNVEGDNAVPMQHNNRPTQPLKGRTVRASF
T4 sequence (O43570 25-354): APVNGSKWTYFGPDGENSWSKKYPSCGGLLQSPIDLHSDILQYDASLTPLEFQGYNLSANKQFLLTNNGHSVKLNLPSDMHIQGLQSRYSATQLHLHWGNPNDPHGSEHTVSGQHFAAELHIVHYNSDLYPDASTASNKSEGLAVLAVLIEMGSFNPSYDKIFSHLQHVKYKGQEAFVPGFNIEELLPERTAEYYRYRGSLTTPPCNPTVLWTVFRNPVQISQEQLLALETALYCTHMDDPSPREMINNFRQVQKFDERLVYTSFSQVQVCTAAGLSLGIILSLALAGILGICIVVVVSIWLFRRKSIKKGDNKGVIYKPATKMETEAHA

NS(=O)(=O)c1ccc2c(c1)CCN2C(=O)c1cccc(Cl)c1 [Compound 4f, 1-(3-Chlorobenzoyl)indoline-5-sulfonamide]
Ki (hCA I): 304 nM | Ki (hCA II): 31.3 nM | fold higher activity against CA IX compared with 4e (hCA IX; in vitro KI, 4f vs 4e): ~10 fold | Ki (hCA IX; stopped-flow technique, mean from three assays): 141 nM | Ki (hCA XII): 112 nM | IC50 (MCF7 cells; hypoxia (1% O2), read-out: IC50 against MCF7 Cells, Hypoxia): 12900 ± 1200 nM | IC50 (MCF7 cells; normoxia, read-out: IC50 against MCF7 Cells, Normoxia): 24500 ± 1900 nM | CA IX expression in A431 cells (CA IX): moderate decrease | GLUT1 expression in A431 cells (GLUT1): did not change | PD-L1 expression in A431 cells (PD-L1): did not change | melting point: > 250 °C
